Experimental data taken from patent US10385024B2, “Compounds and methods for inhibiting NHE-mediated antiport in the treatment of disorders associated with fluid retention or salt overload and gastrointestinal tract disorders” (Ardelyx, Inc., priority 2012, dated 2019).

Tests used:
human NHE-3 = target: T1, human NHE-3 (Homo sapiens, UniProt P48764); assay: Cell-based assay of NHE-3 activity (human NHE3 inhibition assay); conditions: OK cells with human NHE-3 gene, BCECF pH dye, 0-30 μM test compound
T1 construct: expressed in transfected cells; host or cells: Opossum kidney (OK) cells (ATCC), transfected by electroporation
T1 sequence (P48764 26-834): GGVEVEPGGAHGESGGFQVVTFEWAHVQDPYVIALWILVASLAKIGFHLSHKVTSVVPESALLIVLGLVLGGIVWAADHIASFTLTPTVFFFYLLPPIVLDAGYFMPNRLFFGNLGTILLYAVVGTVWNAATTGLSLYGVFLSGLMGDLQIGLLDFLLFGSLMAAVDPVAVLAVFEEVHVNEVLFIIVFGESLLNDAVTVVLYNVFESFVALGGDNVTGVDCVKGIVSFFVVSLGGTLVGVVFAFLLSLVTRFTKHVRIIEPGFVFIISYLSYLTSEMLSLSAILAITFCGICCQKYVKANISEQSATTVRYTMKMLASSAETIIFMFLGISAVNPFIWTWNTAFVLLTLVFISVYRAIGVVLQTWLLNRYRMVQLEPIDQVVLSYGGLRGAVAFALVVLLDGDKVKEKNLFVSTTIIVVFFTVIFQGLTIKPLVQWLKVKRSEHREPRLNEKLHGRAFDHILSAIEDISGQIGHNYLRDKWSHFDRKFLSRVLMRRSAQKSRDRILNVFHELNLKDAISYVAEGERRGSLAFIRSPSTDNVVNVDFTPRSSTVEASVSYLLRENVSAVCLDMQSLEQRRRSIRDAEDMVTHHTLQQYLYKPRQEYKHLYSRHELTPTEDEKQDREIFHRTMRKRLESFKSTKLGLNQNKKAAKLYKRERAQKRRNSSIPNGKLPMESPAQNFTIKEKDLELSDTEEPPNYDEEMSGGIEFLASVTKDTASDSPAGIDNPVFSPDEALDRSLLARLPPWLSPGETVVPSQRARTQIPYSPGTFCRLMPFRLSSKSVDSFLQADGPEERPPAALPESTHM
In short: (§1)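 Opossum kidney cells electroporated with rat or human NHE-3, loaded with 5 μM BCECF-AM in NH4Cl-HEPES pH 7.4 for 30 min at RT, then acidified 10 min in Na+-free choline HEPES. Na+-dependent pH recovery rates from BCECF fluorescence, averaged over ≥2 replicates, gave pIC50.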

Rat NHE-3 [1] = target: T2, Rat NHE-3 (Rattus norvegicus, UniProt P26433); assay: Cell-based assay of NHE-3 activity (rat NHE-3 prompt inhibition); conditions: OK cells with rat NHE-3 gene, compound present during pH recovery
T2 construct: expressed in transfected cells; host or cells: Opossum kidney (OK) cells (ATCC), transfected by electroporation
T2 sequence (P26433 29-831): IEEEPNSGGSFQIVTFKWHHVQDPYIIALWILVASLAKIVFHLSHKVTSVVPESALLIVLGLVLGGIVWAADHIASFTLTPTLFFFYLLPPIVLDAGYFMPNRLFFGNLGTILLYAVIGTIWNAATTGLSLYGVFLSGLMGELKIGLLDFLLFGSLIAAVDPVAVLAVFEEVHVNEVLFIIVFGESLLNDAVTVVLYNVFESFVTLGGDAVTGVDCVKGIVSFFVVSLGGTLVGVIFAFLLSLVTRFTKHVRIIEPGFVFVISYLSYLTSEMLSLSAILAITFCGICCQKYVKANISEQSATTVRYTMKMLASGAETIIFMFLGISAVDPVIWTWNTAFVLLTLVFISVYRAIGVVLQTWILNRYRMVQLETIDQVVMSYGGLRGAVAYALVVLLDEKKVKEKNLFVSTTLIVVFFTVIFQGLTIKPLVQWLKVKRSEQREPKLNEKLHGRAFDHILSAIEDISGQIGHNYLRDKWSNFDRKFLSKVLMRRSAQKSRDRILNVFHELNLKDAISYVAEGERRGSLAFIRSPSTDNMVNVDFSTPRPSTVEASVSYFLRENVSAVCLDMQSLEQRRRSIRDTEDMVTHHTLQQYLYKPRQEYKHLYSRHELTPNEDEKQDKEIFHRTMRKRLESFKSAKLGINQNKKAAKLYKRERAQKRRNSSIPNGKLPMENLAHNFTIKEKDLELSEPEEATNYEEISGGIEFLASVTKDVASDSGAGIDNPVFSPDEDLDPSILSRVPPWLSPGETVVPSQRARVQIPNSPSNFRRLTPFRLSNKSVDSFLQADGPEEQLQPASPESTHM
In short: as §1

Rat NHE-3 [2] = target: T2, Rat NHE-3; assay: Cell-based assay of NHE-3 activity (persistent inhibition, after washout); conditions: OK cells with rat NHE-3 gene, 60 min incubation, recovery initiated 40 min after compound washout
In short: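 OK cells transiently expressing rat NHE-3 were exposed to 0-30 μM compound in NaCl-HEPES pH 7.4 for 60 min, then washed free of drug before NH4Cl/BCECF-AM loading and acid-loading in Na+-free choline buffer. Na+-dependent pH recovery rates (mean of ≥2 replicates) gave pIC50.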

[3] = tested on: absorption of sodium from the intestinal lumen; assay: Inhibition of intestinal sodium absorption (urinary sodium and fecal form); type: in vivo, Sprague-Dawley rats; conditions: rat; for response vs control in vivo at 3 mg/kg: 3 mg/kg oral gavage, urine 16 h post-dose, asterisks = significance vs vehicle (*P<0.05, **P<0.01, ***P<0.001), read-out: uNa (% of vehicle); for FFS: fecal form score, scale 1 (normal pellet) to 5 (liquid fecal streams), group average, 3 mg/kg oral, 16 h post-dose, vehicle = 1
Experimental: Urinary sodium concentration and fecal form were measured to assess the ability of selected example compounds to inhibit the absorption of sodium from the intestinal lumen. Eight-week old Sprague-Dawley rats were purchased from Charles River Laboratories (Hollister, Calif.), were housed 2 per cage, and acclimated for at least 3 days before study initiation. Animals were fed Harlan Teklad Global 2018 rodent chow (Indianapolis, Ind.) and water ad libitum throughout the study and maintained in a standard light/dark cycle of 6 AM to 6 PM. On the day of the study, between 4 PM and 5 PM, a group of rats (n=6) were dosed via oral gavage with test compound at the dosage indicated or vehicle (water) at a volume of 10 mL/kg. After dose administration animals were placed in individual metabolic cages where they were also fed the same chow in meal form and watered ad libitum. At 16 h post-dose, the urine samples were collected and fecal form was assessed by two independent observations. Fecal forms were scored according to a common scale associated with increasing fecal water to the wettest observation in the cage's collection funnel (1, normal pellet; 2, pellet adhering to sides of collection funnel due to moisture; 3, loss of normal pellet shape; 4, complete loss of shape with a blotting pattern; 5, liquid fecal streams evident). A rat's fecal form score (FFS) was determined by averaging both observational scores for all rats within a group (n=6). In every study the vehicle group average was 1. For urine samples, the volumes were determined gravimetrically and centrifuged at 3,600×g. The supernatants were diluted 100-fold in deionized Milli-Q water then filtered through a 0.2 μm GHP Pall AcroPrep filter plate (Pall Life Sciences, Ann Arbor, Mich.) prior to analysis by ion chromatography. Ten microliters of each filtered extract was injected onto a Dionex ICS-3000 ion chromatograph system (Dionex, Sunnyvale, Calif.). Cations were separated by an isocratic method using 25 mM methanesulfonic acid as the eluent on an IonPac CS12A 2 mm i.d.×250 mm, 8 μm particle size cation exchange column (Dionex). Sodium was quantified using standards prepared from a cation standard mix containing Li^+, Na^+, NH4^+, K^+, Mg^2+, and Ca^2+ (Dionex). The mean mass of sodium urinated for every group in the 16 h period was determined with the vehicle group usually urinating approximately 21 mg sodium. The urine Na (uNa) for rats in the test groups were expressed as a percentage of the vehicle mean and the means were compared to that of the vehicle group by utilizing a one-way analysis of variance coupled with a Dunnett's post hoc test.

| Structure (SMILES) | Human NHE3 pIC50 (human NHE-3) | Rat NHE3 pIC50 (prompt) (Rat NHE-3 [1]) | Rat NHE3 pIC50 (persistent) (Rat NHE-3 [2]) | response vs control in vivo at 3 mg/kg [3] [%] | FFS [3] | IC50 (human NHE-3; read-out: Human NHE3 pIC50 (converted)) [nM] | IC50 (Rat NHE-3 [1]; read-out: Rat NHE3 pIC50 (prompt) (converted)) [µM] | IC50 (Rat NHE-3 [2]; read-out: Rat NHE3 pIC50 (persistent) (converted)) [nM] |
| --- | --- | --- | --- | --- | --- | --- | --- | --- |
| CN1Cc2c(Cl)cc(Cl)cc2C(c2cccc(S(=O)(=O)NCCOCCOCCNC(=O)CCC(CCC(=O)NCCOCCOCCNS(=O)(=O)c3cccc(C4CN(C)Cc5c(Cl)cc(Cl)cc54)c3)(CCC(=O)NCCOCCOCCNS(=O)(=O)c3cccc(C4CN(C)Cc5c(Cl)cc(Cl)cc54)c3)NC(=O)N(C)CC(O)C(O)C(O)C(O)CO)c2)C1 (stereo not drawn) [Example 29] | C (C NHE3 pIC50 > 7) | C (C NHE3 pIC50 > 7) | C (C NHE3 pIC50 > 7) | 35 to 75 |  |  |  |  |
| CN1Cc2c(Cl)cc(Cl)cc2[C@H](c2cccc(S(=O)(=O)NCCOCCOCCNC(=O)CCC(CCC(=O)NCCOCCOCCNS(=O)(=O)c3cccc([C@@H]4CN(C)Cc5c(Cl)cc(Cl)cc54)c3)(CCC(=O)NCCOCCOCCNS(=O)(=O)c3cccc([C@@H]4CN(C)Cc5c(Cl)cc(Cl)cc54)c3)NC(=O)Cn3ccnc3)c2)C1 [Example 30] | B (B NHE3 pIC50 5-7) | B (B NHE3 pIC50 5-7) | C (C NHE3 pIC50 > 7) | > 75 |  |  |  |  |
| CC(O)C(NC(=O)NC(CCC(=O)NCCOCCOCCNS(=O)(=O)c1cccc(C2CN(C)Cc3c(Cl)cc(Cl)cc32)c1)(CCC(=O)NCCOCCOCCNS(=O)(=O)c1cccc(C2CN(C)Cc3c(Cl)cc(Cl)cc32)c1)CCC(=O)NCCOCCOCCNS(=O)(=O)c1cccc(C2CN(C)Cc3c(Cl)cc(Cl)cc32)c1)C(N)=O (stereo not drawn) [Example 31] | C (C NHE3 pIC50 > 7) | C (C NHE3 pIC50 > 7) | C (C NHE3 pIC50 > 7) | < 35 |  |  |  |  |
| CN1Cc2c(Cl)cc(Cl)cc2[C@H](c2cccc(S(=O)(=O)NCCOCCOCCNC(=O)CCC(CCC(=O)NCCOCCOCCNS(=O)(=O)c3cccc([C@@H]4CN(C)Cc5c(Cl)cc(Cl)cc54)c3)(CCC(=O)NCCOCCOCCNS(=O)(=O)c3cccc([C@@H]4CN(C)Cc5c(Cl)cc(Cl)cc54)c3)NC(=O)NCP(=O)(O)O)c2)C1 [Example 32] | B (B NHE3 pIC50 5-7) | C (C NHE3 pIC50 > 7) | C (C NHE3 pIC50 > 7) | 35 to 75 | 2 |  |  |  |
| CN1Cc2c(Cl)cc(Cl)cc2[C@H](c2cccc(S(=O)(=O)NCCOCCOCCNC(=O)CCC(CCC(=O)NCCOCCOCCNS(=O)(=O)c3cccc([C@@H]4CN(C)Cc5c(Cl)cc(Cl)cc54)c3)(CCC(=O)NCCOCCOCCNS(=O)(=O)c3cccc([C@@H]4CN(C)Cc5c(Cl)cc(Cl)cc54)c3)NC(=O)N3CCN(CCOCCO)CC3)c2)C1 [Example 33] | C (C NHE3 pIC50 > 7) | C (C NHE3 pIC50 > 7) | C (C NHE3 pIC50 > 7) | < 35 | 2 |  |  |  |
| CN1Cc2c(Cl)cc(Cl)cc2[C@H](c2cccc(S(=O)(=O)NCCOCCOCCNC(=O)CCC(CCC(=O)NCCOCCOCCNS(=O)(=O)c3cccc([C@@H]4CN(C)Cc5c(Cl)cc(Cl)cc54)c3)(CCC(=O)NCCOCCOCCNS(=O)(=O)c3cccc([C@@H]4CN(C)Cc5c(Cl)cc(Cl)cc54)c3)NC(=O)NC(CO)CO)c2)C1 [Example 34] | C (C NHE3 pIC50 > 7) | C (C NHE3 pIC50 > 7) | C (C NHE3 pIC50 > 7) | < 35 |  |  |  |  |
| CN1Cc2c(Cl)cc(Cl)cc2[C@H](c2cccc(S(=O)(=O)NCCOCCOCCNC(=O)CCC(CCC(=O)NCCOCCOCCNS(=O)(=O)c3cccc([C@@H]4CN(C)Cc5c(Cl)cc(Cl)cc54)c3)(CCC(=O)NCCOCCOCCNS(=O)(=O)c3cccc([C@@H]4CN(C)Cc5c(Cl)cc(Cl)cc54)c3)NC(=O)Cc3nnn[nH]3)c2)C1 [Example 38] | C (C NHE3 pIC50 > 7) | B (B NHE3 pIC50 5-7) | C (C NHE3 pIC50 > 7) | < 35 |  |  |  |  |
| CN1Cc2c(Cl)cc(Cl)cc2[C@H](c2cccc(S(=O)(=O)NCCOCCOCCNC(=O)CCC(CCC(=O)NCCOCCOCCNS(=O)(=O)c3cccc([C@@H]4CN(C)Cc5c(Cl)cc(Cl)cc54)c3)(CCC(=O)NCCOCCOCCNS(=O)(=O)c3cccc([C@@H]4CN(C)Cc5c(Cl)cc(Cl)cc54)c3)NC(=O)N[C@@H](CO)C(=O)O)c2)C1 [Example 39] | C (C NHE3 pIC50 > 7) | C (C NHE3 pIC50 > 7) | C (C NHE3 pIC50 > 7) | < 35 |  |  |  |  |
| CN1CCN(C(=O)NC(CCC(=O)NCCOCCOCCNS(=O)(=O)c2cccc([C@@H]3CN(C)Cc4c(Cl)cc(Cl)cc43)c2)(CCC(=O)NCCOCCOCCNS(=O)(=O)c2cccc([C@@H]3CN(C)Cc4c(Cl)cc(Cl)cc43)c2)CCC(=O)NCCOCCOCCNS(=O)(=O)c2cccc([C@@H]3CN(C)Cc4c(Cl)cc(Cl)cc43)c2)CC1 [Example 41] | C (C NHE3 pIC50 > 7) | B (B NHE3 pIC50 5-7) | C (C NHE3 pIC50 > 7) | < 35 |  |  |  |  |
| CN1Cc2c(Cl)cc(Cl)cc2[C@H](c2cccc(S(=O)(=O)NCCOCCOCCNC(=O)N(C)CCCN(CCCN(C)C(=O)NCCOCCOCCNS(=O)(=O)c3cccc([C@@H]4CN(C)Cc5c(Cl)cc(Cl)cc54)c3)CCCN(C)C(=O)NCCOCCOCCNS(=O)(=O)c3cccc([C@@H]4CN(C)Cc5c(Cl)cc(Cl)cc54)c3)c2)C1 [Example 47, (S)—N,N′-(15-(1-(3-((S)-6,8-dichloro-2-methyl-1,2,3,4-tetrahydroisoquinolin-4-yl)phenylsulfonamido)-11-methyl-10-oxo-3,6-dioxa-9,11-diazatetradecan-14-yl)-11,19-dimethyl-10,20-dioxo-3,6,24,27-tetraoxa-9,11,15,19,21-pentaazanonacosane-1,29-diyl)bis(3-((S)-6,8-dichloro-2-methyl-1,2,3,4-tetrahydroisoquinolin-4-yl)benzenesulfonamide)] |  |  |  | 35 to 75 |  | < 100 | 0.1 to 10 | < 100 |
